We go through 61 molecules from the supplement of paper PMC3974653.

Counter-ions that a name gives are not always drawn.

This experiment deals with MTT (mouse pheochromocytoma). Kind of experiment: IC50 of cell viability (ATP content). The note with it: (24 or 48 h). The essentials: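 Library compounds were tested at 8 final concentrations (0.5 nM to 46 µM) on MTT mouse pheochromocytoma cells for 24 or 48 hrs, with readout by CellTiter-Glo ATP luminescence. Signals were normalised with positive-control wells at 100% and DMSO wells at 0%. IC50 values were obtained by a four-parameter logistic fit.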

For `Cc1ccc2c(Cl)cc(Cl)c(O)c2n1` [5,7-Dichloro-8-hydroxy-2-methylquinoline], the “IC50 of cell viability” value is greater than 46 µM.

With `Cc1ccc(N)cc1O` [5-Amino-o-cresol], the “IC50 of cell viability” value is greater than 46 µM.

For `N[C@@H](Cc1c[nH]c2ccc(O)cc12)C(=O)O` [5-HYDROXY-L-TRYPTOPHAN], the “IC50 of cell viability” value is greater than 46 µM.

For the molecule `O=C1[C@@H]2C[C@@H]3C[C@H]1C[C@@](O)(C3)C2` [5-Hydroxy-2-adamantanone], the “IC50 of cell viability” value was greater than 46 µM.

In the case of `CN1c2c(O)nc(N)nc2NCC1CNc1ccc(C(=O)NC(CCC(=O)[O-])C(=O)[O-])cc1` (stereo unspecified) [5-METHYLTETRAHYDROFOLATE SODIUM SALT], the “IC50 of cell viability” value is greater than 46 µM.

With `COc1ccc2[nH]cc(CCN(C(C)C)C(C)C)c2c1` [5-Methoxy-N,N-diisopropyltryptamine], the “IC50 of cell viability” value is greater than 46 µM.

Take `NC(=O)N/N=C/c1ccc([N+](=O)[O-])o1` [5-Nitro-2-furaldehyde semicarbazone]: the “IC50 of cell viability” value was greater than 46 µM.

In the case of `CC(=O)[C@H]1CC[C@H]2[C@@H]3CC[C@H]4C[C@H](O)CC[C@]4(C)[C@H]3CC[C@]12C` [5-alpha-PREGNAN-3-alpha-OL-20-ONE], the “IC50 of cell viability” value is greater than 46 µM.

Take `C[C@]12CCC(=O)C[C@@H]1CC[C@@H]1[C@@H]2CC[C@]2(C)C=CC[C@@H]12` [5A-ANDROSTA-16-ENE-3-ONE]: the “IC50 of cell viability” value is greater than 46 µM.

Take `C[C@]12CCC(=O)C[C@@H]1CC[C@@H]1[C@@H]2CC[C@]2(C)[C@@H](O)CC[C@@H]12` [5alpha-Androstan-17beta-ol-3-one]: the “IC50 of cell viability” value was greater than 46 µM.

With `CC(=O)[C@H]1CC[C@H]2[C@@H]3CC[C@H]4C[C@H](O)CC[C@]4(C)[C@H]3C(=O)C[C@]12C` [5alpha-Pregnan-3alpha-ol-11,20-dione], the “IC50 of cell viability” value is greater than 46 µM.

Take `COc1cc2nc(O)nc(O)c2cc1OC` [6,7-DIMETHOXYQUINAZOLINE-2,4(1H,3H)-DIONE]: the “IC50 of cell viability” value is greater than 46 µM.

For `CC1(C)S[C@@H]2[C@H](N)C(=O)N2[C@@H]1C(=O)O` [6-AMINOPENICILLANIC ACID], the “IC50 of cell viability” value was greater than 46 µM.

Regarding `CCCc1cc(O)nc(S)n1` [6-Propyl-2-thiouracil], the “IC50 of cell viability” value was greater than 46 µM.

For `C[C@H]1C[C@H]2[C@@H]3CC[C@](O)(C(=O)COC(=O)CCC(O)=O)[C@@]3(C)C[C@H](O)[C@@H]2[C@@]\4(C)/C=C\C(=O)\C=C14` [6a-Methylprednisolone 21-hemisuccinate sodium salt], the “IC50 of cell viability” value is greater than 46 µM.

For the molecule `Cn1c(=O)c2c(ncn2CCO)n(C)c1=O` [7-(beta-HYDROXYETHYL)THEOPHYLLINE], the “IC50 of cell viability” value is greater than 46 µM.

With `Oc1cccc2cccnc12` [8-Hydroxyquinoline], the “IC50 of cell viability” value was greater than 46 µM.

As to `O=C(O)c1ccccc1O.Oc1cccc2cccnc12` [8-quinolinol and salicylic acid], the “IC50 of cell viability” value is greater than 46 µM.

For `O=[N+]([O-])c1c2ccccc2cc2ccccc12` [9-Nitroanthracene], the “IC50 of cell viability” value is greater than 46 µM.

As to `CCCCCC(=O)O[C@@]1(CC[C@H]2[C@@H]3CCC/4=C/C(=O)CC[C@]4(C)[C@H]3CC[C@]12C)C(C)=O` [17a-Hydroxyprogesterone hexanoate], the “IC50 of cell viability” value was greater than 46 µM.

Turning to `CC1(C(=O)O)CCC2(C)CCC3(C)C(=CC(=O)C4C5(C)CCC(O)C(C)(C)C5CCC43C)C2C1` (stereo not drawn) [18ALPHA-GLYCYRRHETINIC ACID], the “IC50 of cell viability” value is greater than 46 µM.

Regarding `C[C@]12CCC3C(CCC4=CC(=O)CC[C@@H]43)C1CCC2O` (stereo partly specified) [19-Norandrostenolone], the “IC50 of cell viability” value is greater than 46 µM.

As to `C[C@H](CCCC(C)(C)O)[C@H]1CC[C@H]2[C@@H]3CC=C4C[C@@H](O)CC[C@]4(C)[C@H]3CC[C@]12C` [25-Hydroxycholesterol], the “IC50 of cell viability” value was greater than 46 µM.

Turning to `CN1CCN([C@@H](c2ccccc2)c2ccc(Cl)cc2)CC1` [(1-[(4-Chlorophenyl)phenyl-methyl]-4-methylpiperazine)], the “IC50 of cell viability” value is greater than 46 µM.

`COc1ccc2c(c1OC)C(=O)O[C@H]2[C@@H]1c2cc3c(cc2CCN1C)OCO3` [(1S,9R)-beta-HYDRASTINE]: the “IC50 of cell viability” value was greater than 46 µM.

`CCc1cc(OC)c(C[C@H](C)N)cc1OC` [(+)-2,5-Dimethoxy-4-ethylamphetamine]: the “IC50 of cell viability” value was greater than 46 µM.

Turning to `COc1cc(C[C@H](C)N)c(OC)cc1C` [(+)-2,5-Dimethoxy-4-methylamphetamine], the “IC50 of cell viability” value was greater than 46 µM.

With `COc1ccc(OC)c(C[C@H](C)N)c1` [(+)-2,5-Dimethoxyamphetamine], the “IC50 of cell viability” value was greater than 46 µM.

On to `COc1cc(C[C@H](C)N)c(OC)cc1Br` [(+)-4-Bromo-2,5-dimethoxyamphetamine], for which the “IC50 of cell viability” value was greater than 46 µM.

Turning to `CCN[C@@H](C)Cc1cccc(C(F)(F)F)c1` [(+)-Fenfluramine], the “IC50 of cell viability” value is greater than 46 µM.

For the molecule `CCN(CC)C(=O)[C@H]\1CN(C)[C@@H]\2CC3=C[NH]C4=C3C(=CC=C4)C2=C1` [(+)-Lysergic], the “IC50 of cell viability” value is greater than 46 µM.

Turning to `C[C@]12N[C@H](Cc3ccccc31)c1ccccc12` [(+)-MK 801], the “IC50 of cell viability” value is greater than 46 µM.

Consider `C[C@H]1[C@@H]2Cc3ccc(O)cc3[C@]1(C)CCN2C` [(+)-Metazocine], for which the “IC50 of cell viability” value is greater than 46 µM.

Consider `CCN[C@@H](C)Cc1ccccc1` [(+)-N-Ethylamphetamine], for which the “IC50 of cell viability” value was greater than 46 µM.

Turning to `CN1CCC[C@@H]1c1cccnc1` [(+)-NICOTINE], the “IC50 of cell viability” value is greater than 46 µM.

On to `CC(C)=CCN1CC[C@@]2(C)c3cc(O)ccc3C[C@H]1[C@@H]2C` [(+)-Pentazocine], for which the “IC50 of cell viability” value was greater than 46 µM.

On to `C[C@H]1[C@@H]2Cc3ccc(O)cc3[C@]1(C)CCN2CCc1ccccc1` [(+)-Phenazocine], for which the “IC50 of cell viability” value was greater than 46 µM.

With `COc1cc2c3cc1Oc1cc(ccc1O)C[C@@H]1c4c(cc(OC)c(O)c4Oc4ccc(cc4)C[C@@H]3N(C)CC2)CC[N+]1(C)C` [(+)-TUBOCURARINE], the “IC50 of cell viability” value is greater than 46 µM.

As to `C[C@@H](N)[C@@H](O)c1ccc(O)c(O)c1` [(-)3,4-DIHYDROXYNOREPHEDRINE], the “IC50 of cell viability” value is greater than 46 µM.

Consider `CC(C)(C)NC[C@H](O)COc1cccc2c1CCCC2=O` [(-) -Levobunolol hydrochloride], for which the “IC50 of cell viability” value is greater than 46 µM.

Consider `CN1C(=O)CC[C@H]1c1cccnc1` [(-)-COTININE], for which the “IC50 of cell viability” value is greater than 46 µM.

For `CCCN1CCC[C@@H]2Cc3n[nH]cc3C[C@H]21` [(-)-QUINPIROLE], the “IC50 of cell viability” value was greater than 46 µM.

With `COc1cc(CC(C)N)cc(OC)c1OC` (stereo unspecified) [(?)-3,4,5-Trimethoxyamphetamine], the “IC50 of cell viability” value was greater than 46 µM.

In the case of `CNC(C)Cc1ccc2c(c1)OCO2` (stereo unspecified) [(?)-3,4-Methylenedioxymethamphetamine], the “IC50 of cell viability” value is greater than 46 µM.

Regarding `COc1cc(CC(C)N)cc2c1OCO2` (stereo unspecified) [(?)-3-Methoxy-4,5-methylenedioxyamphetamine], the “IC50 of cell viability” value was greater than 46 µM.

As for `CC(CC(C#N)(c1ccccc1)c1ccccc1)N(C)C` (stereo unspecified) [(?)-4-Dimethylamino-2,2-diphenylvaleronitrile], the “IC50 of cell viability” value was greater than 46 µM.

With `CCC1(CCC(C)C)C(=O)NC(=O)NC1=O` [(?)-Amobarbital], the “IC50 of cell viability” value was greater than 46 µM.

With `Clc1ccc([C@H]2CC3CCC2N3)cn1` (stereo partly specified) [(?)-Epibatidine], the “IC50 of cell viability” value is greater than 46 µM.

As for `CNC(C)Cc1ccccc1` (stereo unspecified) [(?)-Methamphetamine], the “IC50 of cell viability” value was greater than 46 µM.

`CCNC(C)Cc1ccc2c(c1)OCO2` (stereo unspecified) [(?)-N-Ethyl-3,4-methylenedioxyamphetamine]: the “IC50 of cell viability” value is greater than 46 µM.

In the case of `CC(Cc1ccc2c(c1)OCO2)NO` (stereo unspecified) [(?)-N-Hydroxy-3,4-methylenedioxyamphetamine], the “IC50 of cell viability” value is greater than 46 µM.

With `CN1CCN(C2Cc3ccccc3Sc3ccc(Cl)cc32)CC1.O=C(O)/C=C\C(=O)O` (stereo unspecified) [(?)-Octoclothepin maleate], the “IC50 of cell viability” value is greater than 46 µM.

With `OC1\N=C(C2=CC=CC=C2)/C3=CC(=CC=C3NC1=O)Cl` (stereo unspecified) [(?)-Oxazepam], the “IC50 of cell viability” value was greater than 46 µM.

In the case of `CC1\N=C(N)/OC1C2=CC=CC=C2` (stereo not drawn) [(?)-cis-(4RS,5SR)-2-Amino-4-methyl-5-phenyl-2-oxazoline], the “IC50 of cell viability” value was greater than 46 µM.

Regarding `NC/C=C/C(=O)O` [(E)-4-amino-2-butenoic acid], the “IC50 of cell viability” value was greater than 46 µM.

For `O=c1[nH]c(=O)n([C@H]2C[C@H](O)[C@@H](CO)O2)cc1/C=C/Br` [(E)-5-(2-Bromovinyl)-2'-deoxyuridine], the “IC50 of cell viability” value is greater than 46 µM.

Turning to `CCCCCC[C@@H](CCC)C(=O)O` [(R)-2-Propyloctanoic acid (Arundic Acid)], the “IC50 of cell viability” value is greater than 46 µM.

For the molecule `CC(N)C(=O)c1ccccc1` [(R)-(+)-Cathinone], the “IC50 of cell viability” value is greater than 46 µM.

In the case of `CCCC1([C@H](O)C/C=C/[C@H]2[C@H](O)CC(=O)[C@@H]2CCCCCCC(=O)OC)CCC1` [(R)-Butaprost], the “IC50 of cell viability” value is greater than 46 µM.

For the molecule `C[C@H](C1=NC=CC=C1)C/2=C(CCN(C)C)/CC3=CC=CC=C23` [(S)-(+)-Dimethindene maleate], the “IC50 of cell viability” value is greater than 46 µM.

Regarding `C[C@H](N)C(=O)c1ccccc1` [(S)-(-)-Cathinone], the “IC50 of cell viability” value was greater than 46 µM.
